Test results reported in PMC10765884, “MC180295 is a highly potent and selective CDK9 inhibitor with preclinical in vitro and in vivo efficacy in cancer” (Clinical Epigenetics, 2024).

How the values were obtained:
CT26.CL25 cells = assay: CT26.CL25 colon cancer model in B6 mice with/without CD8 depletion; assay type: in vivo; conditions: CT26.CL25 s.c. in B6 mice, MC180295 20 mg/kg i.p. q.o.d., DAC 0.5 mg/kg i.p. daily
Method: Fig. 5 Survival and antitumor effects of MC180295, DAC, or their combination, with/without CD8 + T cells. A 20 mg/kg MC180295 was administered (i.p.) q.o.d. 0.5 mg/kg DAC was administered (i.p.) daily. Mouse survival in days. B Survival of B6 mice, after CD8 depletion, using an anti-CD8 antibody. 20 mg/kg MC180295 was administered (i.p.) q.o.d. 0.5 mg/kg DAC was administered (i.p.) daily. C Antitumor effects of MC180295 with and without CD8 depletion, using an anti-CD8 antibody. B6 mice were inoculated (s.c.) with 5 × 10^5 CT26.CL25 cells. Eight days later, when tumors were palpable, 20 mg/kg MC180295 was administered (i.p.) q.o.d. 0.5 mg/kg DAC was administered (i.p.) daily. Tumor sizes were measured using a caliper and calculated over vehicle. D Antitumor effects of DAC, with and without CD8 depletion, using an anti-CD8 antibody. B6 mice were inoculated (s.c.) with 5 × 10^5 CT26.CL25 cells. Eight days later, when tumors were palpable, 20 mg/kg MC180295 was administered (i.p.) q.o.d. 0.5 mg/kg DAC was administered (i.p.) daily. Tumor sizes were measured using a caliper and calculated over vehicle. E Antitumor effects of DAC + MC180295, with and without CD8 depletion, using an anti-CD8 antibody. B6 mice were inoculated (s.c.) with 5 × 10^5 CT26.CL25 cells. Eight days later, when tumors were palpable, 20 mg/kg MC180295 was administered (i.p.) q.o.d. 0.5 mg/kg DAC was administered (i.p.) daily. Tumor sizes were measured using a caliper and calculated over vehicle. Significances were calculated using log-rank (Mantel-Cox) or Student's T tests. Data shown as means ± SEMs
For the s.c. SW48 model, 2 × 10^6 cells were injected into the flanks of randomly assigned, gender-matched 8–10-week-old NSG mice. 20 mg/kg MC180379, MC180380, or MC180295 was injected (i.p.), every other day, when the tumors were palpable, 11 days after engraftment, until endpoints were met. Mice were sacrificed before tumor volumes exceeded 400 mm^2 (endpoint for this model). For the s.c. HT29 model, 2 × 10^6 cells were injected into the flanks of randomly assigned, gender-matched, 8–10-week-old NSG mice. […]

[1] = Drug toxicity: body weights and complete blood counts in tumor-bearing mice; assay type: in vivo; conditions: MV4-11 model, NSG mice, Fig. S4D
MV4-11-luc cells = assay: MV4-11-luc AML model in NSG mice; conditions: MV4-11-luc in NSG mice, 0.5 mg/kg DAC i.p. daily alone
Method: E NSG mice were inoculated (i.p.) with 5 × 10^5 MV4-11-luc cells. Four days later, when substantial tumor burden was evident by bioluminescence imaging, MC180379, MC180380, or vehicle were administered (i.p.) q.o.d at 20 mg/kg. Luciferase expression was quantified and calculated. F Mouse survival in days. […] Significances were calculated using log-rank (Mantel-Cox) or Student’s t tests.
0.5 mg/kg DAC was administered (i.p.) daily. […] B Mouse survival in days. 20 mg/kg MC180295 was administered (i.p.) q.o.d. 0.5 mg/kg DAC was administered (i.p.) daily. C NSG mice were inoculated (i.p.) with 5 × 10^5 MV4-11-luc cells. Four days later, when substantial tumor burden was evident by bioluminescence imaging, MC180295 (20 mg/kg) or vehicle were administered (i.p.) every other day. 0.5 mg/kg DAC was administered (i.p.) daily. Luciferase expression was quantified and calculated. […] 0.5 mg/kg DAC was administered (i.p.) daily. Mouse survival shown in days. Significances were calculated using log-rank (Mantel-Cox) or Student's t tests. Data are shown as means ± SEMs. ***p < 0.001
Both female and male NOD.Cg-Prkdcscid Il2rgtm1Wjl/SzJ (NSG) mice were used for the experiments. Age- and gender-matched mice were randomly assigned to each group. 8–10-week-old NSG mice were tail vein-injected with 5 × 10^5 MV4-11-luc cells. […] Natural death or accumulation of ascites fluid were used as endpoints.

CDK9 = target: T1, CDK9 (Homo sapiens, UniProt P50750); parameters: method as in PMID 26083714; conditions: cited from earlier work
T1 construct: purchased Reaction Biology Corp
T1 sequence (P50750 whole entry): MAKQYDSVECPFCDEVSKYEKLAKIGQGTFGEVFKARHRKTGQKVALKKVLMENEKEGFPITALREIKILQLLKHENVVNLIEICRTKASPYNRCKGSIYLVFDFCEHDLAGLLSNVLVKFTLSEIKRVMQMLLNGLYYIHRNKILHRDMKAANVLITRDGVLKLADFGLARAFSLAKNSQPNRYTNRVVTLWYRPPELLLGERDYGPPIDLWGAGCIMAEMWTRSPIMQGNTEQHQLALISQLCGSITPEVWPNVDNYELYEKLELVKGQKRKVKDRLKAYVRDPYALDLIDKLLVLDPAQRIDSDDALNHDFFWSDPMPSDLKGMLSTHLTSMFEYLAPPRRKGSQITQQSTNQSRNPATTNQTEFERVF
T1 sequence (O60563 whole entry partner): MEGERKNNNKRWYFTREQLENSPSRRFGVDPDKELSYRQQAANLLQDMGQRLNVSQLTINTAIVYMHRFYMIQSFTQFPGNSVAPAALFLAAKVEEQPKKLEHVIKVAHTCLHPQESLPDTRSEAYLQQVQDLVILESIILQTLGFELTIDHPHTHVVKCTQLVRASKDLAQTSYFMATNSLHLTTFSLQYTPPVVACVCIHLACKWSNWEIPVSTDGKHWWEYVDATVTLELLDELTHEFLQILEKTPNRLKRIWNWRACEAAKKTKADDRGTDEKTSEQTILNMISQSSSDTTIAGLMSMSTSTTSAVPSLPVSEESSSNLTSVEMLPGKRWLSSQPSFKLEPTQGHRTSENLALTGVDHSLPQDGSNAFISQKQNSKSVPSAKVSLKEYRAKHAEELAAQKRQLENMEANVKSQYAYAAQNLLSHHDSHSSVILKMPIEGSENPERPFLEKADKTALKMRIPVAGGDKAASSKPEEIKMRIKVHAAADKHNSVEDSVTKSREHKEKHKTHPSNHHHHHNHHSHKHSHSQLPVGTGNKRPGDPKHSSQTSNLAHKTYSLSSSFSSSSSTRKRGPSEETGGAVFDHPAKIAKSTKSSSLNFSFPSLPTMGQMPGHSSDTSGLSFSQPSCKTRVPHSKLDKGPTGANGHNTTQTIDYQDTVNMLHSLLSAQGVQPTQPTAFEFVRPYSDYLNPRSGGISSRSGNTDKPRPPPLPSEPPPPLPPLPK

Nc1ncn([C@H]2C[C@H](O)[C@@H](CO)O2)c(=O)n1 [DAC, decitabine, reference compound]
tumor size (CT26.CL25 cells): significantly decrease tumor size, in a CD8 + T cell-dependent manner | body weights [1]: did not affect NSG mouse body weights | survival (MV4-11-luc cells): did not show consistent tumor suppression or a survival benefit | tumor suppression (luciferase) (MV4-11-luc cells): did not show consistent tumor suppression

NC1CCC(Nc2cc(-c3cccc(NCc4cccc(F)c4)n3)c(Cl)cn2)CC1 (centres unmarked) [iCDK9]
selectivity toward CDK9, compared to CDKs 1, 2, 4, 7, and 8 (CDK9): more than 600 fold
